{
  "source": "patent US11090319B2",
  "about": "“Therapeutic uses of pharmaceutical compositions comprising cyclic boronic acid ester derivatives” (Melinta Subsidiary Corp., priority 2010, dated 2021)",
  "tested_on": "strains expressing KPC alone or in combination with additional beta-lactamases",
  "assay": "microbe, parasite or virus in culture",
  "assay_type": "cell-based",
  "key": {"[1]": {"details": "Enterobacter cloacae ECL1058, KPC-3, SHV-11, TEM-1, Compound 5 0.31 mg/L"}, "[2]": {"details": "Enterobacter cloacae ECL1058, KPC-3, SHV-11, TEM-1, Compound 5 0.625 mg/L"}, "[3]": {"details": "Enterobacter cloacae ECL1059, KPC-3, SHV-12, TEM-1, Compound 5 0.31 mg/L"}, "[4]": {"details": "Enterobacter cloacae ECL1059, KPC-3, SHV-12, TEM-1, Compound 5 0.625 mg/L"}, "[5]": {"details": "Enterobacter cloacae ECL1059, KPC-3, SHV-12, TEM-1, Compound 5 5 mg/L"}, "[6]": {"details": "Enterobacter cloacae ECL1059, KPC-3, SHV-12, TEM-1, Compound 5 10 mg/L"}, "[7]": {"details": "Enterobacter cloacae ECL1059, KPC-3, SHV-12, TEM-1, Compound 5 […]"}, "[8]": {"details": "Escherichia coli EC1007, KPC-3, Compound 5 0.31 mg/L"}, "[9]": {"details": "Escherichia coli EC1007, KPC-3, Compound 5 0.625 mg/L"}, "[10]": {"details": "Escherichia coli EC1007, KPC-3, Compound 5 5 mg/L"}, "[11]": {"details": "Escherichia coli EC1007, KPC-3, Compound 5 10 mg/L"}, "[12]": {"details": "Escherichia coli EC1007, KPC-3, Compound 5 […]"}, "[13]": {"details": "Klebsiella oxytoca KX1017, KPC-2, OXA-2, SHV-30, Compound 5 0.31 mg/L"}, "[14]": {"details": "Klebsiella oxytoca KX1017, KPC-2, OXA-2, SHV-30, Compound 5 0.625 mg/L"}, "[15]": {"details": "Klebsiella oxytoca KX1017, KPC-2, OXA-2, SHV-30, Compound 5 5 mg/L"}, "[16]": {"details": "Klebsiella oxytoca KX1017, KPC-2, OXA-2, SHV-30, Compound 5 10 mg/L"}, "[17]": {"details": "Klebsiella oxytoca KX1018, KPC-2, SHV-40, OXY-1, Compound 5 0.31 mg/L"}, "[18]": {"details": "Klebsiella oxytoca KX1018, KPC-2, SHV-40, OXY-1, Compound 5 0.625 mg/L"}, "[19]": {"details": "Klebsiella oxytoca KX1018, KPC-2, SHV-40, OXY-1, Compound 5 […]"}, "[20]": {"details": "Klebsiella oxytoca KX1019, KPC-2 OXA-2, Compound 5 0.625 mg/L"}, "[21]": {"details": "Klebsiella pneumoniae KP 1004, KPC-2, Compound 5 0.31 mg/L"}, "[22]": {"details": "Klebsiella pneumoniae KP 1004, KPC-2, Compound 5 0.625 mg/L"}, "[23]": {"details": "Klebsiella pneumoniae KP 1004, KPC-2, Compound 5 5 mg/L"}},
  "data": [
    {"smiles": "O=C(O)C[C@@H]1CC[C@H](NC(=O)Cc2cccs2)B(O)O1", "note": "[Compound 5, 2-((3R,6S)-2-hydroxy-3-(2-(thiophen-2-yl)acetamido)-1,2-oxaborinan-6-yl)acetic acid]", "values": [
      {"measurement": "potentiation of carbapenems", "result": "significantly potentiate multiple carbapenems"},
      {"measurement": "MIC of Doripenem", "setting": "[1]", "result": "Y (MIC of 0.5 mg/L to 4 mg/L)"},
      {"measurement": "MIC of Ertapenem", "setting": "[1]", "result": "Z (MIC of greater than 4 mg/L)"},
      {"measurement": "MIC of Doripenem", "setting": "[2]", "result": "Y (MIC of 0.5 mg/L to 4 mg/L)"},
      {"measurement": "MIC of Ertapenem", "setting": "[2]", "result": "Z (MIC of greater than 4 mg/L)"},
      {"measurement": "MIC of Ertapenem", "setting": "Enterobacter cloacae ECL1058, KPC-3, SHV-11, TEM-1, Compound 5 5 mg/L", "result": "X (MIC of less than 0.5 mg/L)"},
      {"measurement": "MIC of Ertapenem", "setting": "Enterobacter cloacae ECL1058, KPC-3, SHV-11, TEM-1, Compound 5 10 mg/L", "result": "X (MIC of less than 0.5 mg/L)"},
      {"measurement": "MIC of Doripenem", "setting": "Enterobacter cloacae ECL1058, KPC-3, SHV-11, TEM-1, Compound 5 […]", "result": "Y (MIC of 0.5 mg/L to 4 mg/L)"},
      {"measurement": "MIC of Doripenem", "setting": "[3]", "result": "X (MIC of less than 0.5 mg/L)"},
      {"measurement": "MIC of Ertapenem", "setting": "[3]", "result": "X (MIC of less than 0.5 mg/L)"},
      {"measurement": "MIC of Doripenem", "setting": "[4]", "result": "X (MIC of less than 0.5 mg/L)"},
      {"measurement": "MIC of Ertapenem", "setting": "[4]", "result": "X (MIC of less than 0.5 mg/L)"},
      {"measurement": "MIC of Biapenem", "setting": "[5]", "result": "X (MIC of less than 0.5 mg/L)"},
      {"measurement": "MIC of Doripenem", "setting": "[5]", "result": "X (MIC of less than 0.5 mg/L)"},
      {"measurement": "MIC of Ertapenem", "setting": "[5]", "result": "X (MIC of less than 0.5 mg/L)"},
      {"measurement": "MIC of Biapenem", "setting": "[6]", "result": "X (MIC of less than 0.5 mg/L)"},
      {"measurement": "MIC of Doripenem", "setting": "[6]", "result": "X (MIC of less than 0.5 mg/L)"},
      {"measurement": "MIC of Ertapenem", "setting": "[6]", "result": "X (MIC of less than 0.5 mg/L)"},
      {"measurement": "MIC of Biapenem", "setting": "[7]", "result": "X (MIC of less than 0.5 mg/L)"},
      {"measurement": "MIC of Doripenem", "setting": "[7]", "result": "X (MIC of less than 0.5 mg/L)"},
      {"measurement": "MIC of Ertapenem", "setting": "[7]", "result": "X (MIC of less than 0.5 mg/L)"},
      {"measurement": "MIC of Doripenem", "setting": "[8]", "result": "X (MIC of less than 0.5 mg/L)"},
      {"measurement": "MIC of Ertapenem", "setting": "[8]", "result": "X (MIC of less than 0.5 mg/L)"},
      {"measurement": "MIC of Doripenem", "setting": "[9]", "result": "X (MIC of less than 0.5 mg/L)"},
      {"measurement": "MIC of Ertapenem", "setting": "[9]", "result": "X (MIC of less than 0.5 mg/L)"},
      {"measurement": "MIC of Doripenem", "setting": "[10]", "result": "X (MIC of less than 0.5 mg/L)"},
      {"measurement": "MIC of Ertapenem", "setting": "[10]", "result": "X (MIC of less than 0.5 mg/L)"},
      {"measurement": "MIC of Biapenem", "setting": "[11]", "result": "X (MIC of less than 0.5 mg/L)"},
      {"measurement": "MIC of Doripenem", "setting": "[11]", "result": "X (MIC of less than 0.5 mg/L)"},
      {"measurement": "MIC of Ertapenem", "setting": "[11]", "result": "X (MIC of less than 0.5 mg/L)"},
      {"measurement": "MIC of Doripenem", "setting": "[12]", "result": "X (MIC of less than 0.5 mg/L)"},
      {"measurement": "MIC of Ertapenem", "setting": "[12]", "result": "X (MIC of less than 0.5 mg/L)"},
      {"measurement": "MIC of Biapenem", "setting": "[13]", "result": "Y (MIC of 0.5 mg/L to 4 mg/L)"},
      {"measurement": "MIC of Doripenem", "setting": "[13]", "result": "Y (MIC of 0.5 mg/L to 4 mg/L)"},
      {"measurement": "MIC of Ertapenem", "setting": "[13]", "result": "Y (MIC of 0.5 mg/L to 4 mg/L)"},
      {"measurement": "MIC of Doripenem", "setting": "[14]", "result": "Y (MIC of 0.5 mg/L to 4 mg/L)"},
      {"measurement": "MIC of Ertapenem", "setting": "[14]", "result": "Y (MIC of 0.5 mg/L to 4 mg/L)"},
      {"measurement": "MIC of Biapenem", "setting": "[15]", "result": "X (MIC of less than 0.5 mg/L)"},
      {"measurement": "MIC of Doripenem", "setting": "[15]", "result": "X (MIC of less than 0.5 mg/L)"},
      {"measurement": "MIC of Ertapenem", "setting": "[15]", "result": "X (MIC of less than 0.5 mg/L)"},
      {"measurement": "MIC of Biapenem", "setting": "[16]", "result": "X (MIC of less than 0.5 mg/L)"},
      {"measurement": "MIC of Doripenem", "setting": "[16]", "result": "X (MIC of less than 0.5 mg/L)"},
      {"measurement": "MIC of Ertapenem", "setting": "[16]", "result": "X (MIC of less than 0.5 mg/L)"},
      {"measurement": "MIC of Biapenem", "setting": "[17]", "result": "X (MIC of less than 0.5 mg/L)"},
      {"measurement": "MIC of Doripenem", "setting": "[17]", "result": "X (MIC of less than 0.5 mg/L)"},
      {"measurement": "MIC of Ertapenem", "setting": "[17]", "result": "X (MIC of less than 0.5 mg/L)"},
      {"measurement": "MIC of Biapenem", "setting": "[18]", "result": "X (MIC of less than 0.5 mg/L)"},
      {"measurement": "MIC of Doripenem", "setting": "[18]", "result": "X (MIC of less than 0.5 mg/L)"},
      {"measurement": "MIC of Ertapenem", "setting": "[18]", "result": "X (MIC of less than 0.5 mg/L)"},
      {"measurement": "MIC of Biapenem", "setting": "[19]", "result": "X (MIC of less than 0.5 mg/L)"},
      {"measurement": "MIC of Doripenem", "setting": "[19]", "result": "X (MIC of less than 0.5 mg/L)"},
      {"measurement": "MIC of Ertapenem", "setting": "[19]", "result": "X (MIC of less than 0.5 mg/L)"},
      {"measurement": "MIC of Ertapenem", "setting": "Klebsiella oxytoca KX1019, KPC-2 OXA-2, Compound 5 0.31 mg/L", "result": "Y (MIC of 0.5 mg/L to 4 mg/L)"},
      {"measurement": "MIC of Doripenem", "setting": "[20]", "result": "Y (MIC of 0.5 mg/L to 4 mg/L)"},
      {"measurement": "MIC of Ertapenem", "setting": "[20]", "result": "Y (MIC of 0.5 mg/L to 4 mg/L)"},
      {"measurement": "MIC of Ertapenem", "setting": "Klebsiella oxytoca KX1019, KPC-2 OXA-2, Compound 5 5 mg/L", "result": "X (MIC of less than 0.5 mg/L)"},
      {"measurement": "MIC of Ertapenem", "setting": "Klebsiella oxytoca KX1019, KPC-2 OXA-2, Compound 5 10 mg/L", "result": "X (MIC of less than 0.5 mg/L)"},
      {"measurement": "MIC of Ertapenem", "setting": "Klebsiella oxytoca KX1019, KPC-2 OXA-2, Compound 5 […]", "result": "Y (MIC of 0.5 mg/L to 4 mg/L)"},
      {"measurement": "MIC of Biapenem", "setting": "[21]", "result": "X (MIC of less than 0.5 mg/L)"},
      {"measurement": "MIC of Doripenem", "setting": "[21]", "result": "X (MIC of less than 0.5 mg/L)"},
      {"measurement": "MIC of Ertapenem", "setting": "[21]", "result": "Y (MIC of 0.5 mg/L to 4 mg/L)"},
      {"measurement": "MIC of Biapenem", "setting": "[22]", "result": "X (MIC of less than 0.5 mg/L)"},
      {"measurement": "MIC of Doripenem", "setting": "[22]", "result": "X (MIC of less than 0.5 mg/L)"},
      {"measurement": "MIC of Ertapenem", "setting": "[22]", "result": "Y (MIC of 0.5 mg/L to 4 mg/L)"},
      {"measurement": "MIC of Biapenem", "setting": "[23]", "result": "X (MIC of less than 0.5 mg/L)"},
      {"measurement": "MIC of Doripenem", "setting": "[23]", "result": "X (MIC of less than 0.5 mg/L)"}
    ]}
  ]
}
